Laboratory results as given in ChEMBL document CHEMBL1201862, “PubChem BioAssay data set” (2004).
Where “and” joins values, the source holds several entries; their conditions need not be identical. Equal entries are not always repeated.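 Step 1: Grow cells in 96-well plates. Step 2: Expose to compound for 48 hours at 5 concentrations. Step 3: Interpolate endpoints linearly; if unreached, use highest concentration. The concentration for 50% growth inhibition is given as GI50.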 Calls of active or inactive are those of the source. No stated cut-off is given here; in the data, active = GI50 up to about 1.1 µM and inactive = higher.

Tests used:
Test in all cases: NCI-60 cell line screen, 48 h
CCRF-CEM = system: CCRF-CEM
OVCAR-4 = system: OVCAR-4
SW-620 = system: SW-620
NCI-H522 = system: NCI-H522
NCI-H23 = system: NCI-H23
DMS-114 = system: DMS-114
SK-MEL-2 = system: SK-MEL-2
OVCAR-5 = system: OVCAR-5
RXF 393 = system: RXF 393
MOLT-4 = system: MOLT-4
HCC 2998 = system: HCC 2998
NCI-H460 = system: NCI-H460
UACC-62 = system: UACC-62
OVCAR-3 = system: OVCAR-3
IGROV-1 = system: IGROV-1
Malme-3M = system: Malme-3M
UO-31 = system: UO-31
RPMI-8226 = system: RPMI-8226
U-251 = system: U-251
SNB-75 = system: SNB-75

Measured: GI50

CC1=NN(C(=O)c2ccc(C)cc2)C(=O)C1/N=N/c1ccccc1C(=O)O (stereo not drawn)
inactive: CCRF-CEM 53.7 µM | OVCAR-4 > 100 µM | SW-620 > 100 µM | NCI-H522 29.6 µM | NCI-H23 > 100 µM | DMS-114 > 100 µM | SK-MEL-2 > 100 µM | OVCAR-5 > 100 µM | RXF 393 > 100 µM | MOLT-4 > 73.8 µM | HCC 2998 > 100 µM | NCI-H460 > 100 µM | UACC-62 > 100 µM | OVCAR-3 > 89.1 µM | IGROV-1 > 100 µM | Malme-3M > 100 µM | UO-31 > 100 µM | RPMI-8226 95.7 µM | U-251 85.7 µM | SNB-75 > 37.7 µM

COc1cc2cc[n+]3c(C)c4cc(OC)c(OC)cc4c([O-])c3c2cc1OC
inactive: CCRF-CEM 27 µM | OVCAR-4 85.7 µM | SW-620 41.9 µM | NCI-H522 18.2 µM | NCI-H23 87.7 µM | DMS-114 30.3 µM | SK-MEL-2 56.9 µM | OVCAR-5 > 100 µM | RXF 393 35.6 µM | MOLT-4 48.8 µM | HCC 2998 > 100 µM | NCI-H460 > 100 µM | UACC-62 > 100 µM | OVCAR-3 3.44 µM | IGROV-1 25.7 µM | Malme-3M 26.9 µM | UO-31 > 100 µM | RPMI-8226 > 100 µM | U-251 47.1 µM | SNB-75 33 µM

COc1ccc(/C=N/n2cnc3c(c2=O)SC(=C(C#N)C#N)N3c2ccccc2)cc1
inactive: CCRF-CEM > 100 µM | SW-620 > 100 µM | NCI-H522 56.2 µM | NCI-H23 > 100 µM | OVCAR-5 > 100 µM | MOLT-4 > 100 µM | HCC 2998 > 100 µM | NCI-H460 > 100 µM | UACC-62 > 100 µM | OVCAR-3 > 100 µM | IGROV-1 > 100 µM | UO-31 > 100 µM | RPMI-8226 > 100 µM | U-251 > 100 µM | SNB-75 27.6 µM

CCOC(=O)C1=C(C)N(C2OC(COC(C)=O)C(OC(C)=O)C(OC(C)=O)C2OC(C)=O)C(=O)NC1c1ccccc1 (stereo not drawn)
inactive: CCRF-CEM 44.9 µM | OVCAR-4 > 100 µM | SW-620 > 100 µM | NCI-H522 20 µM | NCI-H23 > 100 µM | DMS-114 > 100 µM | SK-MEL-2 > 100 µM | OVCAR-5 > 100 µM | MOLT-4 99.1 µM | HCC 2998 > 100 µM | NCI-H460 > 100 µM | UACC-62 > 100 µM | OVCAR-3 > 100 µM | IGROV-1 > 100 µM | Malme-3M > 100 µM | UO-31 > 100 µM | RPMI-8226 4.84 µM | U-251 > 100 µM | SNB-75 55 µM

COc1cc(C(O)(CC#N)c2cc3c(cc2Br)OCO3)cc(OC)c1OC (stereo not drawn)
inactive: CCRF-CEM 43.2 µM | OVCAR-4 > 100 µM | SW-620 40.3 µM | NCI-H23 51.9 µM | SK-MEL-2 47 µM | OVCAR-5 17.4 µM | RXF 393 17.2 µM | MOLT-4 56 µM | HCC 2998 24 µM | NCI-H460 18.8 µM | UACC-62 24.9 µM | OVCAR-3 18 µM | IGROV-1 20.9 µM | UO-31 57.5 µM | RPMI-8226 50.7 µM | U-251 28.6 µM | SNB-75 65.3 µM

CSc1cc(=O)n2c3ccccc3c3ccnc1c32
inactive: CCRF-CEM > 100 µM | OVCAR-4 > 100 µM | SW-620 > 100 µM | NCI-H522 > 81.8 µM | NCI-H23 > 100 µM | DMS-114 > 100 µM | SK-MEL-2 > 100 µM | OVCAR-5 97.1 µM | RXF 393 > 49.2 µM | MOLT-4 > 100 µM | HCC 2998 > 100 µM | NCI-H460 57 µM | UACC-62 41.4 µM | OVCAR-3 > 100 µM | IGROV-1 25.7 µM | Malme-3M > 86.7 µM | UO-31 45.6 µM | RPMI-8226 > 90.8 µM | U-251 > 55.6 µM | SNB-75 > 69.3 µM

CCOC(=O)c1ccc(N2C(=O)/C(=C/c3ccc(N(CCC#N)CCC#N)cc3)N=C2c2cc([N+](=O)[O-])ccc2Cl)cc1
inactive: CCRF-CEM > 100 µM | OVCAR-4 > 100 µM | SW-620 > 100 µM | NCI-H522 > 100 µM | NCI-H23 > 100 µM | DMS-114 > 100 µM | SK-MEL-2 > 100 µM | OVCAR-5 > 100 µM | RXF 393 > 100 µM | MOLT-4 > 100 µM | HCC 2998 > 100 µM | UACC-62 93.3 µM | OVCAR-3 > 100 µM | IGROV-1 > 100 µM | Malme-3M > 100 µM | UO-31 > 100 µM | RPMI-8226 > 100 µM | U-251 > 100 µM

CC(=O)c1ccc(Oc2ccc(/C(C)=N\N=C(N)N)cc2)cc1
inactive: CCRF-CEM 1.91 µM | OVCAR-4 10.6 µM | NCI-H522 1.8 µM | NCI-H23 3.75 µM | DMS-114 1.43 µM | SK-MEL-2 1.73 µM | OVCAR-5 4.68 µM | MOLT-4 2.25 µM | HCC 2998 8.41 µM | NCI-H460 2.77 µM | UACC-62 2 µM | OVCAR-3 1.99 µM | IGROV-1 5.62 µM | Malme-3M 1.97 µM | RPMI-8226 2.31 µM | U-251 2.77 µM | SNB-75 1.47 µM

CC(C(=O)O)c1cnn(-c2ccccc2)c1-n1cccc1 (stereo not drawn)
inactive: CCRF-CEM > 100 µM | OVCAR-4 > 100 µM | SW-620 > 63 µM | NCI-H522 > 100 µM | NCI-H23 > 100 µM | SK-MEL-2 > 100 µM | OVCAR-5 > 100 µM | RXF 393 > 100 µM | MOLT-4 > 100 µM | HCC 2998 > 100 µM | NCI-H460 > 100 µM | UACC-62 > 100 µM | OVCAR-3 > 63.7 µM | IGROV-1 > 100 µM | Malme-3M > 100 µM | UO-31 > 100 µM | RPMI-8226 > 100 µM | U-251 > 100 µM | SNB-75 > 100 µM

OCC(O)COc1ccc(Br)cc1 (stereo not drawn)
inactive: CCRF-CEM > 100 µM | OVCAR-4 > 100 µM | SW-620 > 100 µM | NCI-H522 > 100 µM | NCI-H23 > 100 µM | DMS-114 > 100 µM | SK-MEL-2 > 100 µM | OVCAR-5 > 100 µM | RXF 393 > 100 µM | HCC 2998 > 100 µM | NCI-H460 > 10 µM | UACC-62 > 100 µM | OVCAR-3 > 100 µM | IGROV-1 > 100 µM | Malme-3M > 100 µM | UO-31 > 100 µM | RPMI-8226 > 100 µM | U-251 > 100 µM | SNB-75 > 100 µM

O=C1C(Cl)N(c2ccc(Cl)cc2)C1c1c[nH]c2ccccc12 (stereo not drawn)
inactive: CCRF-CEM 13 µM | OVCAR-4 39.7 µM | SW-620 26 µM | NCI-H522 17.2 µM | NCI-H23 18.4 µM | DMS-114 14.2 µM | SK-MEL-2 14.5 µM | RXF 393 20 µM | MOLT-4 14.7 µM | NCI-H460 15 µM | UACC-62 14.9 µM | OVCAR-3 17.6 µM | IGROV-1 16.7 µM | Malme-3M 12.5 µM | UO-31 11.6 µM | RPMI-8226 20.6 µM | U-251 13 µM | SNB-75 19.1 µM

C/C(=N/NC(=O)c1ccncc1)C(F)(F)F
inactive: NCI-H522 > 100 µM | NCI-H23 > 100 µM | SK-MEL-2 > 100 µM | OVCAR-5 > 100 µM | RXF 393 > 100 µM | MOLT-4 > 100 µM | HCC 2998 > 100 µM | NCI-H460 > 10 µM | UACC-62 > 100 µM | OVCAR-3 > 100 µM | IGROV-1 > 100 µM | Malme-3M > 100 µM | UO-31 > 100 µM | RPMI-8226 > 100 µM | U-251 > 100 µM | SNB-75 > 100 µM

C[C@@H]1C[C@]2(C[C@@H](C)[C@H]3C(C[C@@]4(C)CCC[C@@H]5C6=C[C@H](CCC34C)OC6=CC(=O)OC5(C)C)O2)OC1=O (stereo partly drawn)
inactive: CCRF-CEM > 51.5 µM | OVCAR-4 > 51.5 µM | SW-620 > 51.5 µM | NCI-H522 > 51.5 µM | NCI-H23 > 51.5 µM | DMS-114 > 51.5 µM | SK-MEL-2 > 51.5 µM | OVCAR-5 > 51.5 µM | MOLT-4 > 51.5 µM | HCC 2998 > 51.5 µM | NCI-H460 > 51.5 µM | UACC-62 > 51.5 µM | OVCAR-3 > 51.5 µM | IGROV-1 > 51.5 µM | UO-31 > 51.5 µM | RPMI-8226 > 51.5 µM | U-251 > 51.5 µM | SNB-75 13.1 µM

O=C1C(CO)=C[C@H](O)[C@H]2O[C@@H]12
inactive: CCRF-CEM 74.8 µM | OVCAR-4 130 µM | SW-620 126 µM | NCI-H522 88.7 µM | NCI-H23 238 µM | DMS-114 137 µM | SK-MEL-2 130 µM | OVCAR-5 264 µM | RXF 393 153 µM | MOLT-4 133 µM | HCC 2998 311 µM | NCI-H460 199 µM | UACC-62 113 µM | OVCAR-3 177 µM | IGROV-1 182 µM | Malme-3M 137 µM | UO-31 267 µM | RPMI-8226 > 96.8 µM | U-251 171 µM | SNB-75 335 µM

CC(Oc1ccc(Oc2cnc3ccc(Cl)cc3n2)cc1)C(=O)O (stereo not drawn)
inactive: CCRF-CEM > 74.1 µM | OVCAR-4 > 100 µM | SW-620 > 99.8 µM | NCI-H522 32.7 µM | NCI-H23 > 100 µM | SK-MEL-2 > 100 µM | OVCAR-5 > 100 µM | RXF 393 > 100 µM | MOLT-4 15.1 µM | NCI-H460 60.4 µM and 19.6 µM | UACC-62 > 100 µM and 81.1 µM | OVCAR-3 > 100 µM | IGROV-1 37.4 µM and 47.4 µM | Malme-3M 79.3 µM | UO-31 > 95.9 µM | U-251 > 94.6 µM | SNB-75 47.3 µM
